The numbers were not newly measured in US10954336B2 (SCRUM Co., Ltd., priority 2017, dated 2021), which cites them from elsewhere.

The conditions of this data set: comparison / conventional substances.

`C[C@H](O)C(=O)O` [L-lactic acid]: the Acidity result is “yes”.
